Assay results: patent US20230159453A1 (COCRYSTAL PHARMA, INC., priority 2020, published 2023)
pIC50: −log10 of the molar value. “And” between values parts separate entries of the source, which are not always exact repeats. Equal entries are not always repeated.

Target: SARS2 protease (Severe acute respiratory syndrome coronavirus 2, UniProt P0DTD1)
Experiment: SARS-CoV-2 protease inhibition assay (SARS2 FRET protease assay)
Format: biochemical
Settings: SARS-CoV-2 protease 25 nM, FRET, peptide substrate 1.3 μM, 30 minutes at 30° C., compounds 20 μM to 1.0 nM; read-out: IC50

SMILES | pIC50
O=CC(CC1CC2(CCOCC2)NC1=O)NC(=O)[C@H](CC1CCCCC1)NC(=O)OC1CCCC1Cc1cccc(Cl)c1 (stereo partly drawn) [Compound C225, 2-(3-chlorobenzyl)cyclopentyl ((2S)-3-cyclohexyl-1-oxo-1-((1-oxo-3-(2-oxo-8-oxa-1-azaspiro[4.5]decan-3-yl)propan-2-yl)amino)propan-2-yl)carbamate] | 6.00
CC(C)C[C@H](NC(=O)OC(Cc1ccccc1)c1ccccc1)C(=O)N[C@@H](C[C@@H]1CCNC1=O)C(=O)C(=O)NCc1ccccn1 (stereo partly drawn) [Compound C68, 1,2-Diphenylethyl ((S)-1-(((S)-3,4-dioxo-1-((S)-2-oxopyrrolidin-3-yl)-4-((pyridin-2-ylmethyl)amino)butan-2-yl)amino)-4-methyl-1-oxopentan-2-yl)carbamate] | 5.68
O=C(N[C@@H](CC1CCCCC1)C(=O)N[C@@H](CC1CC2(CCCCC2)NC1=O)C(=O)C(=O)N1CCCC1)c1cc2ccccc2[nH]1 (stereo partly drawn) [Compound C171, N-((2S)-3-cyclohexyl-1-((3,4-dioxo-1-(2-oxo-1-azaspiro[4.5]decan-3-yl)-4-(pyrrolidin-1-yl)butan-2-yl)amino)-1-oxopropan-2-yl)-1H-indole-2-carboxamide] | 4.96
CCCCCCOC(=O)N[C@@H](CC1CCCCC1)C(=O)N[C@@H](CCC(=O)N1CCOc2ccccc2C1)C(O)P(=O)(OCC)OCC (stereo partly drawn) [Compound C7, Hexyl ((2S)-3-cyclohexyl-1-(((2S)-1-(diethoxyphosphoryl)-5-(2,3-dihydrobenzo[f][1,4]oxazepin-4(5H)-yl)-1-hydroxy-5-oxopentan-2-yl)amino)-1-oxopropan-2-yl)carbamate] | < 3.70
CC(C)C[C@H](NC(=O)OC(c1cccc(Cl)c1)C(C)(C)c1cccc(Cl)c1)C(=O)N[C@@H](C[C@@H]1CCNC1=O)C(=O)C(=O)NC1CC1 (some centres unmarked) [Compound C286] | 7.15
CC1C[C@H](NC(=O)[C@H](CC2CCCCC2)NC(=O)OCc2cccc(Cl)c2)C(O)N(CCc2ccccc2)C1=O (some centres unmarked) [Compound C4] | < 3.70
CCCCC[C@H](NC(=O)OC(c1ccccc1)C(C)(C)c1cccc(Cl)c1)C(=O)N[C@@H](C[C@@H]1CCNC1=O)C(=O)C(=O)NC1CC1 (some centres unmarked) [Compound C289] | 6.43
CC(C)C[C@H](NC(=O)N(Cc1ccccc1)C1CCN(C(=O)OC(C)(C)C)CC1)C(=O)N[C@H](C=O)C[C@@H]1CCNC1=O [Compound C37, Tert-butyl 4-(1-benzyl-3-((S)-4-methyl-1-oxo-1-(((S)-1-oxo-3-((S)-2-oxopyrrolidin-3-yl)propan-2-yl)amino)pentan-2-yl)ureido)piperidine-1-carboxylate] | 6.86 and 6.58
CCOP(=O)(OCC)C(O)C(CC1CC(Cc2ccccc2)NC1=O)NC(=O)[C@H](CC1CCCCC1)NC(=O)OCc1cccc(Cl)c1 (stereo partly drawn) [Compound C41, 3-Chlorobenzyl ((2S)-1-((3-(5-benzyl-2-oxopyrrolidin-3-yl)-1-(diethoxyphosphoryl)-1-hydroxypropan-2-yl)amino)-3-cyclohexyl-1-oxopropan-2-yl)carbamate] | 6.51
CC(C)C[C@H](NC(=O)OC(c1ccccc1)C(C)(C)c1cccc(Cl)c1)C(=O)N[C@H](C=O)C[C@@H]1CCNC1=O (stereo partly drawn) [Compound C108, 2-(3-Chlorophenyl)-2-methyl-1-phenylpropyl ((S)-4-methyl-1-oxo-1-(((S)-1-oxo-3-((S)-2-oxopyrrolidin-3-yl)propan-2-yl)amino)pentan-2-yl) carbamate] | 8.92
CC(C)C[C@H](NC(=O)N(Cc1ccccc1)C1CCN(C(=O)OC(C)(C)C)CC1)C(=O)N[C@@H](C[C@@H]1CCNC1=O)C(=O)C(=O)NC1CC1 [Compound C98, Tert-butyl 4-(1-benzyl-3-((S)-1-(((S)-4-(cyclopropylamino)-3,4-dioxo-1-((S)-2-oxopyrrolidin-3-yl)butan-2-yl)amino)-4-methyl-1-oxopentan-2-yl)ureido)piperidine-1-carboxylate] | 5.66
